Measured values taken from patent publication US11464770B2, “Anticancer pharmaceutical composition” (NATIONAL CANCER CENTER, priority 2016, dated 2022).
Where two headings read alike, the source gives them in different places.

Key:
[1] = tested on: renal cancer cell lines; test: Cell based assay, cell viability (CellTiter-Glo), renal cancer cell lines; details: Homo sapiens; ACHN cells
Procedure, shortened: (§1)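 Luminescent ATP assay quantified surviving cells after three days of treatment. Compound was applied at final concentrations of 0 to 2 μM, starting 24 h after cells were seeded.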

[2] = tested on: neuroblastoma cell lines; test: Cell based assay, cell viability (CellTiter-Glo), neuroblastoma cell lines; details: Homo sapiens; SH-SY5Y cell line
Procedure, shortened: as §1

[3] = tested on: pancreatic cancer cell lines (e.g. MIA PaCa-2); test: Cell based assay, cell viability (CellTiter-Glo), pancreatic cancer cell lines; details: Homo sapiens
Procedure, shortened: as §1

[4] = pancreatic cancer cell line AsPC-1, 72 hours, read-out: IC50, AsPC-1
[5] = pancreatic cancer cell line BxPC-3, 72 hours, read-out: IC50, BxPC-3
[6] = pancreatic cancer cell line CFPAC-1, 72 hours, read-out: IC50, CFPAC-1
[7] = pancreatic cancer cell line Capan-1, 72 hours, read-out: IC50, Capan-1
[8] = pancreatic cancer cell line Capan-2, 72 hours, read-out: IC50, Capan-2
[9] = pancreatic cancer cell line MIA PaCa-2, 72 hours, read-out: IC50, MIA PaCa-2
[10] = pancreatic cancer cell line PANC-1, 72 hours, read-out: IC50, PANC-1

SMILES | IC50 [1] [nM] | IC50 [2] [nM] | IC50 [3, 4] [nM] | IC50 [3, 5] [nM] | IC50 [3, 6] [nM] | IC50 [3, 7] [nM] | IC50 [3, 8] [nM] | IC50 [3, 9] [nM] | IC50 [3, 10] [nM]
CSc1c(C(C)=O)c(=O)c2c(Cl)ccc(Br)c2n1C [Compound 5, 3-acetyl-8-bromo-5-chloro-1-methyl-2-(methylthio)quinolin-4(1H)-one] | > 2000 | > 2000 | > 2000 | > 2000 | > 10000 | > 2000 | > 2000 | > 2000 | > 2000
CC(=O)c1c([S+](C)[O-])n(C(C)=O)c2c(Br)ccc(Cl)c2c1=O (stereo not drawn) [Compound 19, 1,1′-(8-bromo-5-chloro-2-(methylsulfinyl)-4-oxoquinoline-1,3(4H)-diyl)bis(ethan-1-one)] | > 2000 | > 2000 | > 2000 | > 2000 | > 10000 | > 2000 | > 2000 | > 2000 | > 2000
CSc1c(C(C)=O)c(=O)c2c(Cl)ccc(Br)c2n1C(C)=O [Compound 18, 1,1′-(8-bromo-5-chloro-2-(methylthio)-4-oxoquinoline-1,3(4H)-diyl)bis(ethan-1-one)] | > 2000 | > 2000 | > 2000 | > 2000 | > 10000 | > 2000 | > 2000 | > 2000 | > 2000
CCS(=O)(=O)n1c([S+](C)[O-])c(C(C)=O)c(=O)c2c(Cl)ccc(Br)c21 (stereo not drawn) [Compound 39, 3-acetyl-8-bromo-5-chloro-1-(ethylsulfonyl)-2-(methylsulfinyl)quinolin-4(1H)-one] | > 2000 | > 2000 | > 2000 | > 2000 | > 10000 | > 2000 | > 2000 | > 2000 | > 2000
CC(=O)c1c(SCc2ccc(Cl)cc2)[nH]c2c(Br)ccc(Cl)c2c1=O [Compound 10, 3-acetyl-8-bromo-5-chloro-2-((4-chlorobenzyl)thio)quinolin-4(1H)-one] | > 2000 | > 2000 | > 2000 | > 2000 | > 10000 | > 2000 | > 2000 | > 2000 | > 2000
CC(=O)c1c([S+]([O-])Cc2ccc(S(F)(F)(F)(F)F)cc2)[nH]c2c(F)ccc(F)c2c1=O (stereo not drawn) [Compound 80, 3-acetyl-5,8-difluoro-2-((4-(pentafluoro--sulfanyl)benzyl)sulfinyl)quinolin-4(1H)-one] | > 2000 | > 2000 | > 2000 | > 2000 | > 10000 | > 2000 | > 2000 | > 2000 | > 2000
CC(=O)c1c([S+]([O-])Cc2cnc3[nH]ccc3c2)[nH]c2c(Br)ccc(Cl)c2c1=O (stereo not drawn) [Compound 107, 2-(((1H-pyrrolo[2,3-b]pyridin-5-yl)methyl)sulfinyl)-3-acetyl-8-bromo-5-chloroquinolin-4(1H)-one] | > 2000 | > 2000 | > 2000 | > 2000 | > 10000 | > 2000 | > 2000 | > 2000 | > 2000
COC(=O)c1ccc(C[S+]([O-])c2[nH]c3c(Cl)ccc(Cl)c3c(=O)c2C(C)=O)cc1 (stereo not drawn) [Compound 91, methyl 4-(((3-acetyl-5,8-dichloro-4-oxo-1,4-dihydroquinolin-2-yl)sulfinyl)methyl)benzoate] | > 2000 | 1220 | > 2000 | > 2000 | > 10000 | > 2000 | > 2000 | 1420 | > 2000
CSc1c(C(C)=O)c(=O)c2c(Cl)ccc(Br)c2n1S(=O)(=O)c1ccc(Cl)cc1 [Compound 37, 3-acetyl-8-bromo-5-chloro-1-((4-chlorophenyl)sulfonyl)-2-(methylthio)quinolin-4(1H)-one] | > 2000 | > 2000 | > 2000 | > 2000 | > 10000 | > 2000 | > 2000 | > 2000 | > 2000
CC(=O)c1c(SCc2ccc(F)c(Cl)c2)[nH]c2c(Br)ccc(Cl)c2c1=O [Compound 30, 3-acetyl-8-bromo-5-chloro-2-((3-chloro-4-fluorobenzyl)thio)quinolin-4(1H)-one] | > 2000 | > 2000 | > 2000 | > 2000 | > 10000 | > 2000 | > 2000 | > 2000 | > 2000
CC(=O)c1c([S+](C)[O-])n(C(=O)c2ccc(Br)cc2)c2c(Br)ccc(Cl)c2c1=O (stereo not drawn) [Compound 9, 3-acetyl-8-bromo-1-(4-bromobenzoyl)-5-chloro-2-(methylsulfinyl)quinolin-4(1H)-one] | > 2000 | > 2000 | > 2000 | > 2000 | > 10000 | > 2000 | > 2000 | 1030 | > 2000
CC(=O)c1c([S+]([O-])Cc2ccccc2C#N)[nH]c2c(Br)ccc(Cl)c2c1=O (stereo not drawn) [Compound 58, 2-(((3-acetyl-8-bromo-5-chloro-4-oxo-1,4-dihydroquinolin-2-yl)sulfinyl)methyl)benzonitrile] | > 2000 | > 2000 | > 2000 | > 2000 | > 10000 | > 2000 | > 2000 | 810 | > 2000
CC(=O)c1c([S+]([O-])Cc2ccccc2)n(C(=O)c2ccc(Br)cc2)c2c(Br)ccc(Cl)c2c1=O (stereo not drawn) [Compound 20, 3-acetyl-2-(benzylsulfinyl)-8-bromo-1-(4-bromobenzoyl)-5-chloroquinolin-4(1H)-one] | > 2000 | > 2000 | > 2000 | > 2000 | > 10000 | > 2000 | > 2000 | > 2000 | > 2000
CC(=O)c1c([S+]([O-])Cc2cc(C)on2)[nH]c2c(F)ccc(F)c2c1=O (stereo not drawn) [Compound 82, 3-acetyl-5,8-difluoro-2-(((5-methylisoxazol-3-yl)methyl)sulfinyl)quinolin-4(1H)-one] | > 2000 | 1550 | > 2000 | > 2000 | > 10000 | > 2000 | > 2000 | > 2000 | > 2000
CC(C)C(=O)c1c([S+]([O-])Cc2ccc(SC(F)(F)F)cc2)[nH]c2c(F)ccc(F)c2c1=O (stereo not drawn) [Compound 85, 5,8-difluoro-3-isobutyryl-2-((4-((trifluoromethyl)thio)benzyl)sulfinyl)quinolin-4(1H)-one] | > 2000 | > 2000 | > 2000 | > 2000 | > 10000 | > 2000 | > 2000 | > 2000 | > 2000
COc1cccc2[nH]c([S+]([O-])Cc3cc(C)on3)c(C(C)=O)c(=O)c12 (stereo not drawn) [Compound 94, 3-acetyl-5-methoxy-2-(((5-methylisoxazol-3-yl)methyl)sulfinyl)quinolin-4(1H)-one] | > 2000 | 1760 | > 2000 | > 2000 | > 10000 | > 2000 | > 2000 | 1650 | > 2000
CC(=O)c1c([S+]([O-])Cc2cccc(C#N)c2)[nH]c2c(Br)ccc(Cl)c2c1=O (stereo not drawn) [Compound 28, 3-(((3-acetyl-8-bromo-5-chloro-4-oxo-1,4-dihydroquinolin-2-yl)sulfinyl)methyl)benzonitrile] | > 2000 | > 2000 | > 2000 | > 2000 | > 10000 | > 2000 | > 2000 | 880 | > 2000
CC(=O)c1c([S+]([O-])Cc2ccc(NS(C)(=O)=O)cc2)[nH]c2c(Br)ccc(Cl)c2c1=O (stereo not drawn) [Compound 103, N-(4-(((3-acetyl-8-bromo-5-chloro-4-oxo-1,4-dihydroquinolin-2-yl)sulfinyl)methyl)phenyl)methane-sulfonamide] | > 2000 | 1010 | > 2000 | > 2000 | > 10000 | > 2000 | > 2000 | > 2000 | > 2000
COCSc1[nH]c2c(Br)ccc(Cl)c2c(=O)c1C(C)=O [Compound 61, 3-acetyl-8-bromo-5-chloro-2-((methoxymethyl)thio)quinolin-4(1H)-one] | > 2000 | > 2000 | > 2000 | > 2000 | > 10000 | > 2000 | > 2000 | > 2000 | > 2000
